Counter-ions that a name gives are not always drawn.

The first assay concerns Acinetobacter baumannii ATCC17961. The experiment in a line: Antimicrobial susceptibility testing: 90% growth inhibitory concentration (IC90) determination. It is filed as cell-based. To be noted: Acinetobacter baumannii, ATCC17961, 16 h, 90% growth inhibitory concentration, Acinetobacter baumannii ATCC17961, Iso-Sensitest broth, OD 600 nm over 16 h; read-out: ATCC 17961 IC90. The method, then:
Assay Procedures Antimicrobial Susceptibility Testing: 90% Growth Inhibitory Concentration (IC90) Determination
The in vitro antimicrobial activity of the compounds was determined according to the following procedure:
The assay used a 10-points Iso-Sensitest broth medium to measure quantitatively the in vitro activity of the compounds against Acinetobacter baumannii ATCC17961.
Stock compounds in DMSO were serially twofold diluted (e.g. range from 50 to 0.097 μM final concentration) in 384 wells microtiter plates and inoculated with 49 μl the bacterial suspension in Iso-Sensitest medium to have a final cell concentration of ˜5×10^(5) CFU/ml in a final volume/well of 50 ul/well. Microtiter plates were incubated at 35±2° C.
Bacterial cell growth was determined with the measurement of optical density at λ=600 nm each 20 minutes over a time course of 16h. Growth inhibition was calculated during the logarithmic growth of the bacterial cells with determination of the concentration inhibiting 50% (IC50) and 90% (IC90) of the growth.
Table 1 provides the 90% growth inhibitory concentrations (IC90) in micromoles per liter of the compounds of present invention obtained against the strain Acinetobacter baumannii ATCC17961.
`Cc1nn(CCOC(F)F)cc1-c1ccc(-c2cnc(C(=O)Nc3ccc(C(=O)N4CCN(C(=O)[C@@H]5C[C@@H](O)C[N+]5(C)C)CC4)c(Cl)c3)n2C)c(F)c1F` [Example F9, N-[3-chloro-4-[4-[(2S,4R)-4-hydroxy-1,1-dimethyl-pyrrolidin-1-ium-2-carbonyl]piperazine-1-carbonyl]phenyl]-5-[4-[1-[2-(difluoro-methoxy)ethyl]-3-methyl-pyrazol-4-yl]-2,3-difluoro-phenyl]-1-methyl-imidazole-2-carboxamide; formate]: the IC90 (commonly the concentration at which the effect reaches the 90% level) was 160 nM.

Take `Cc1nn(CC(=O)Nc2cccnc2)cc1-c1ccc(-c2cnc(C(=O)Nc3ccc(C(=O)N4CCN(C(=O)C5CC[N+](C)(C)CC5)CC4)c(Cl)c3)n2C)c(F)c1F` [Example G27, N-[3-chloro-4-[4-(1,1-dimethylpiperidin-1-ium-4-carbonyl)piperazine-1-carbonyl]phenyl]-5-[2,3-difluoro-4-[3-pyridylamino)ethyl] pyrazol-4-yl]phenyl]-1-methyl-imidazole-2-carboxamide; formate]: the IC90 turned out to be 120 nM.

As to `Cc1nn(CC(=O)NC2CCCOC2)cc1-c1ccc(-c2cnc(C(=O)Nc3ccc(C(=O)N4CCN(C(=O)C5CC[N+](C)(C)CC5)CC4)c(Cl)c3)n2C)c(F)c1F` (centres unmarked) [Example G22, N-[3-chloro-4-[4-(1,1-dimethylpiperidin-1-ium-4-carbonyl)piperazine-1-carbonyl]phenyl]-5-[2,3-difluoro-4-[3-methyl-1-[2-oxo-2-(tetrahydropyran-3-ylamino)ethyl]pyrazol-4-yl]phenyl]-1-methyl-imidazole-2-carboxamide; formate], the IC90 came out at 670 nM.

With `Cc1n[nH]cc1-c1ccc(-c2cnc(C(=O)Nc3ccc(C(=O)N4CCN(C(=O)CN(C)C)CC4)c(Cl)c3)n2C)c(F)c1F` [Example D34, N-[3-chloro-4-[4-[2-(dimethylamino)acetyl]piperazine-1-carbonyl]phenyl]-5-[2,3-difluoro-4-(3-methyl-1H-pyrazol-4-yl)phenyl]-1-methyl-imidazole-2-carboxamide; formic acid], the IC90 stood at 110 nM.

For the compound `Cc1n[nH]c(C)c1-c1ccc(-c2cnc(C(=O)Nc3ccc(C(=O)N4CCN(C(=O)CN(C)C)CC4)c(Cl)c3)n2C)cc1` [Example E16, N-[3-chloro-4-[4-[2-(dimethylamino)acetyl]piperazine-1-carbonyl]phenyl]-5-[4-(3,5-dimethyl-1H-pyrazol-4-yl)phenyl]-1-methyl-imidazole-2-carboxamide], the IC90 was found to be 230 nM.

With `Cc1nn(-c2ccc(N)cn2)cc1-c1ccc(-c2cnc(C(=O)Nc3ccc(C(=O)N4CCN(C(=O)C5CC[N+](C)(C)CC5)CC4)c(Cl)c3)n2C)c(F)c1F` [Example F40, 5-[4-[1-(5-amino-2-pyridyl)-3-methyl-pyrazol-4-yl]-2,3-difluoro-phenyl]-N-[3-chloro-4-[4-(1,1-dimethylpiperidin-1-ium-4-carbonyl)piperazine-1-carbonyl]phenyl]-1-methyl-imidazole-2-carboxamide; chloride], the IC90 is 610 nM.

Turning to `COCCn1ncc(-c2ccc(-c3cnc(C(=O)Nc4ccc(C(=O)N5CCN(C(=O)C6CC[N+](C)(C)CC6)CC5)c(Cl)c4)n3C)c(C)c2F)c1C` [Example F3, N-[3-chloro-4-[4-(1,1-dimethylpiperidin-1-ium-4-carbonyl)piperazine-1-carbonyl]phenyl]-5-[3-fluoro-4-[1-(2-methoxyethyl)-5-methyl-pyrazol-4-yl]-2-methyl-phenyl]-1-methyl-imidazole-2-carboxamide; formate], the 90% effect concentration (IC90) is 120 nM.

As to `COCCn1ncc(-c2ccc(-c3cnc(C(=O)Nc4ccc(C(=O)N5CCN(C(=O)C6CC[N+](CC(=O)O)(CC7CNC7)CC6)CC5)c(Cl)c4)n3C)c(Cl)c2F)c1C` (centres unmarked) [Example B37, 2-[1-(azetidin-3-ylmethyl)-4-[4-[2-chloro-4-[[5-[2-chloro-3-fluoro-4-[1-(2-methoxyethyl)-5-methyl-pyrazol-4-yl]phenyl]-1-methyl-imidazole-2-carbonyl]amino]benzoyl]piperazine-1-carbonyl]piperidin-1-ium-1-yl]acetic acid; formate], the IC90 came out at 200 nM.

On to `COCCn1cc(-c2ccc(-c3cnc(C(=O)Nc4ccc(C(=O)N5CCN(C(=O)C[N+]6(C)CCC(O)(CN)C6)CC5)c(Cl)c4)n3C)c(F)c2F)c(C)n1` (centres unmarked) [Example C6, N-[4-[4-[2-[3-(aminomethyl)-3-hydroxy-1-methyl-pyrrolidin-1-ium-1-yl]acetyl]piperazine-1-carbonyl]-3-chloro-phenyl]-5-[2,3-difluoro-4-[1-(2-methoxyethyl)-3-methyl-pyrazol-4-yl]phenyl]-1-methyl-imidazole-2-carboxamide; formic acid; formate], for which the IC90 was found to be 140 nM.

On to `CCc1nn(CCOC)cc1-c1ccc(-c2cnc(C(=O)Nc3ccc(C(=O)N4CCN(C(=O)CC5(O)CC[N+](C)(C)CC5)CC4)c(Cl)c3)n2C)c(F)c1F` [Example F24, N-[3-chloro-4-[4-[2-(4-hydroxy-1,1-dimethyl-piperidin-1-ium-4-yl)acetyl]piperazine-1-carbonyl]phenyl]-5-[4-[3-ethyl-1-(2-methoxyethyl)pyrazol-4-yl]-2,3-difluoro-phenyl]-1-methyl-imidazole-2-carboxamide; formate], for which the IC90 worked out at 590 nM.

In the case of `COCCn1ncc(-c2ccc(-c3cnc(C(=O)Nc4ccc(C(=O)N5CCN(C(=O)CCC[N+](C)(CCCN)CCCN)CC5)c(Cl)c4)n3C)c(F)c2F)c1C` [Example P3, bis(3-aminopropyl)-[4-[4-[2-chloro-4-[[5-[2,3-difluoro-4-[1-(2-methoxyethyl)-5-methyl-pyrazol-4-yl]phenyl]-1-methyl-imidazole-2-carbonyl]amino]benzoyl]piperazin-1-yl]-4-oxo-butyl]-methyl-ammonium; formate], the IC90 was 293 nM.

Consider `COCCn1cc(-c2ccc(-c3cnc(C(=O)Nc4ccc(C(=O)N5CCN(C(=O)C[N+]6(C)C[C@H](OC)[C@@H](N)C6)CC5)c(Cl)c4)n3C)c(F)c2F)c(C)n1` (stereo partly drawn) [Example C5, N-[4-[4-[2-[(3S,4S)-3-amino-4-methoxy-1-methyl-pyrrolidin-1-ium-1-yl]acetyl]piperazine-1-carbonyl]-3-chloro-phenyl]-5-[2,3-difluoro-4-[1-(2-methoxyethyl)-3-methyl-pyrazol-4-yl]phenyl]-1-methyl-imidazole-2-carboxamide; formic acid; formate], for which the IC90 worked out at 240 nM.

As for `COCCn1cc(-c2ccc(-c3cnc(C(=O)Nc4ccc(C(=O)N5CCN(C(=O)[C@@H]6C[C@@H](O)C[N+]6(C)CCCO)CC5)c(Cl)c4)n3C)c(F)c2F)c(C)n1` (stereo partly drawn) [Example B27, N-[3-chloro-4-[4-[(2S,4R)-4-hydroxy-1-(3-hydroxypropyl)-1-methyl-pyrrolidin-1-ium-2-carbonyl]piperazine-1-carbonyl]phenyl]-5-[2,3-difluoro-4-[1-(2-methoxyethyl)-3-methyl-pyrazol-4-yl]phenyl]-1-methyl-imidazole-2-carboxamide; iodide], the IC90 stood at 240 nM.

With `COCCn1ncc(-c2ccc(-c3cnc(C(=O)Nc4ccc(C(=O)N5CCN(C(=O)CCC[N+](C)(CC(=O)O)CC6CNC6)CC5)c(Cl)c4)n3C)c(F)c2F)c1C` (centres unmarked) [Example P1, azetidin-3-ylmethyl-(carboxymethyl)-[4-[4-[2-chloro-4-[[5-[2,3-difluoro-4-[1-(2-methoxyethyl)-5-methyl-pyrazol-4-yl]phenyl]-1-methyl-imidazole-2-carbonyl]amino]benzoyl]piperazin-1-yl]-4-oxo-butyl]-methyl-ammonium; formate], the IC90 is 191 nM.

Regarding `COCCn1cc(-c2ccc(-c3cnc(C(=O)Nc4ccc(C(=O)N5CCN(C(=O)[C@@H]6C[C@@H](O)CN6)CC5)c(Cl)c4)n3C)c(F)c2F)c(C)n1` [Example D31, N-[3-chloro-4-[4-[(2S,4R)-4-hydroxypyrrolidine-2-carbonyl]piperazine-1-carbonyl]phenyl]-5-[2,3-difluoro-4-[1-(2-methoxyethyl)-3-methyl-pyrazol-4-yl]phenyl]-1-methyl-imidazole-2-carboxamide; formic acid], the 90% effect concentration (IC90) was 220 nM.

Staying with this assay, now noted: Acinetobacter baumannii, ATCC17961, 16 h, read-out: ATCC 17961 IC90.
For `COCCn1ncc(-c2ccc(-c3cnc(C(=O)Nc4ccc(C(=O)N5CCN(C(=O)[C@H]6CC[N@+](CC(=O)O)(CC7CNC7)CC6)CC5)c(C)c4)n3C)c(C)c2F)c1C` [Example O10, cis 2-[1-(azetidin-3-ylmethyl)-4-[4-[4-[[5-[3-fluoro-4-[1-(2-methoxyethyl)-5-methylpyrazol-4-yl]-2-methylphenyl]-1-methylimidazole-2-carbonyl]amino]-2-methylbenzoyl]piperazine-1-carbonyl]piperidin-1-ium-1-yl]acetic acid; formate], the IC90 was 231 nM.

For the compound `COCCn1ncc(-c2ccc(-c3cnc(C(=O)Nc4ccc(C(=O)N5CCN(C(=O)C6CCN(CC7C[N+](C)(C)C7)CC6)CC5)c(Cl)c4)n3C)c(F)c2F)c1C` [Example B31, N-[3-chloro-4-[4-[1-[(1,1-dimethylazetidin-1-ium-3-yl)methyl]piperidine-4-carbonyl]piperazine-1-carbonyl]phenyl]-5-[2,3-difluoro-4-[1-(2-methoxyethyl)-5-methyl-pyrazol-4-yl]phenyl]-1-methyl-imidazole-2-carboxamide], the IC90 turned out to be 71 nM.

These data come from US12421211B2, “Heterocyclic compounds” (Hoffmann-La Roche Inc., priority 2021, dated 2025).
